Experimental data taken from US11066396B2 (priority 2016, dated 2021).

Assays:
HDAC1 = HDAC1 (Homo sapiens (Human), UniProt Q13547); conditions: read-out: HDAC1 IC50
HDAC8 = HDAC8 (Homo sapiens (Human), UniProt Q9BY41); conditions: read-out: HDAC8 IC50
Chain of HDAC8 (Q9BY41 whole entry): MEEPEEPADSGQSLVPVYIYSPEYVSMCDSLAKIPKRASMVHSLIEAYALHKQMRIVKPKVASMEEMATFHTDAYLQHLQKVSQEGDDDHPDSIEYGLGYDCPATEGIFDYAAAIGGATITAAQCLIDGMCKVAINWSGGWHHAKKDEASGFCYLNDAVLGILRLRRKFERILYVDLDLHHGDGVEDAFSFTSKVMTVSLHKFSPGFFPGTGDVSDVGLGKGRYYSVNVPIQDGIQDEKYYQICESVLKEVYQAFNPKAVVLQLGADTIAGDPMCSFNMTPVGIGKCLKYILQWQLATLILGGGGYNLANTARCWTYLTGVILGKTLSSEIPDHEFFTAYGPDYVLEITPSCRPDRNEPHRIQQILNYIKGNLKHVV

Chain of HDAC1 (Q13547 whole entry): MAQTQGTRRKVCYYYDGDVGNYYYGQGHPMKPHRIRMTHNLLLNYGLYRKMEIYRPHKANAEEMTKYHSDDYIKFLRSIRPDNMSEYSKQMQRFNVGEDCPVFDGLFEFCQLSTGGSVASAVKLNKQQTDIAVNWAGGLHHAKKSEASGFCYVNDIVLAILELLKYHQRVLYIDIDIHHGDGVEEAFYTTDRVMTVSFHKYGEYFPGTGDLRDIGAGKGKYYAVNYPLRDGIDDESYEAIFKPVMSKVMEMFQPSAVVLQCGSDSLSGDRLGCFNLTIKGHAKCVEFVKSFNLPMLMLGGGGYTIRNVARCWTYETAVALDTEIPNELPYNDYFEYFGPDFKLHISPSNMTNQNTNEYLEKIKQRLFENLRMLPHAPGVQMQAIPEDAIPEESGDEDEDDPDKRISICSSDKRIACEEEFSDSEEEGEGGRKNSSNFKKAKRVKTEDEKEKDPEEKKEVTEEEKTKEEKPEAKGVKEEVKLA

| Structure (SMILES) | IC50 (HDAC1) | IC50 (HDAC8) |
| --- | --- | --- |
| O=C1CCC(c2ccccc2Cl)N1c1ccc(-c2noc(C(F)(F)F)n2)c(F)c1 (racemic) [Example 37, 5-(2-chlorophenyl)-1-(3-fluoro-4-(5-(trifluoromethyl)-1,2,4-oxadiazol-3-yl)phenyl)pyrrolidin-2-one] | 16 µM | 10 µM |
| Cc1noc(C2CCCC(=O)N2c2ccc(-c3noc(C(F)(F)F)n3)cc2)n1 (racemic) [Example 48, 6-(3-methyl-1,2,4-oxadiazol-5-yl)-1-(4-(5-(trifluoromethyl)-1,2,4-oxadiazol-3-yl)phenyl)piperidin-2-one] | 2.2 µM | 1.8 µM |
| O=C(C1CCS(=O)(=O)C1)N(Cc1ccc(-c2noc(C(F)(F)F)n2)cn1)c1cccc(F)c1 (racemic) [Example 54, N-(3-fluorophenyl)-N-((5-(5-(trifluoromethyl)-1,2,4-oxadiazol-3-yl)pyridin-2-yl)methyl)tetrahydrothiophene-3-carboxamide 1,1-dioxide] | 0.27 µM | 2.6 µM |
| CCN1CCCC(C(=O)N(Cc2ccc(-c3noc(C(F)(F)F)n3)cn2)c2cccc(F)c2)C1 (racemic) [Example 57, 1-ethyl-N-(3-fluorophenyl)-N-((5-(5-(trifluoromethyl)-1,2,4-oxadiazol-3-yl)pyridin-2-yl)methyl)piperidine-3-carboxamide] | 0.24 µM | 2 µM |
| CC(C)N1CCCC(C(=O)N(Cc2ccc(-c3noc(C(F)(F)F)n3)cn2)c2cccc(F)c2)C1 (racemic) [Example 61, N-(3-fluorophenyl)-1-isopropyl-N-((5-(5-(trifluoromethyl)-1,2,4-oxadiazol-3-yl)pyridin-2-yl)methyl)piperidine-3-carboxamide] | 0.26 µM | 2 µM |
| FC(F)(F)c1nc(-c2ccc(N3CCOC[C@H]3c3ccccc3)nc2)no1 [Example 144, (R)-3-phenyl-4-(5-(5-(trifluoromethyl)-1,2,4-oxadiazol-3-yl)pyridin-2-yl)morpholine] |  | 2.7 µM |
| Cc1cc(=O)n2c(n1)CN(c1ccc(-c3noc(C(F)(F)F)n3)cn1)CC2 [Example 158, 2-methyl-8-(5-(5-(trifluoromethyl)-1,2,4-oxadiazol-3-yl)pyridin-2-yl)-6,7,8,9-tetrahydro-4H-pyrazino[1,2-a]pyrimidin-4-one] |  | 0.75 µM |
| O=C1CCc2ccc(F)cc2N1Cc1ccc(-c2noc(C(F)(F)F)n2)cc1 [Example 318, 7-fluoro-1-{4-[5-(trifluoromethyl)-1,2,4-oxadiazol-3-yl]benzyl}-3,4-dihydroquinolin-2(1H)-one] |  | 1.8 µM |
| FC(F)(F)c1nc(-c2ccc(CNc3cc[nH]n3)nc2)no1 [Example 432, N-({5-[5-(trifluoromethyl)-1,2,4-oxadiazol-3-yl]pyridin-2-yl}methyl)-1H-pyrazol-3-amine] |  | 1.3 µM |
| O=C(c1cccc(NCc2ccc(-c3noc(C(F)(F)F)n3)cn2)c1)N1CCCC1 [Example 439, 3-(pyrrolidin-1-ylcarbonyl)-N-({5-[5-(trifluoromethyl)-1,2,4-oxadiazol-3-yl]pyridin-2-yl}methyl)aniline] |  | 1.4 µM |
| O=C(Nc1ccccc1)c1cccc(NCc2ccc(-c3noc(C(F)(F)F)n3)cn2)c1 [Example 440, N-phenyl-3-[({5-[5-(trifluoromethyl)-1,2,4-oxadiazol-3-yl]pyridin-2-yl}methyl)amino]benzamide] |  | 0.28 µM |
| O=C(NCc1ccccc1)c1ccccc1NCc1ccc(-c2noc(C(F)(F)F)n2)cn1 [Example 448, N-benzyl-2-[({5-[5-(trifluoromethyl)-1,2,4-oxadiazol-3-yl]pyridin-2-yl}methyl)amino]benzamide] |  | 0.53 µM |
| CC(=O)N1CCC(CNCc2ccc(-c3noc(C(F)(F)F)n3)cn2)CC1 [Example 455, 1-(1-acetylpiperidin-4-yl)-N-({5-[5-(trifluoromethyl)-1,2,4-oxadiazol-3-yl]pyridin-2-yl}methyl)methanamine] |  | 3.8 µM |
